# Experimental data published in ChEMBL document CHEMBL3297657, “Synthesis and antitumor activities of novel α-aminophosphonate derivatives containing an alizarin moiety” (Eur J Med Chem, 2014).
# Active and inactive are the calls of the source. No cut-off for these calls is given here.
# Legend:
# [1] = system: MGC-803; assay: Cytotoxicity against human MGC803 cells after 48 hrs by MTT assay; assay type: functional, cell-based; conditions: MGC-803, 48 h
# [2] = system: NCI-H460; assay: Cytotoxicity against human NCI-H460 cells after 48 hrs by MTT assay; assay type: functional, cell-based; conditions: NCI-H460, 48 h
# [3] = system: NCI-H460; assay: Induction of apoptosis in human NCI-H460 cells assessed as change in mitochondrial membrane potential after 24 hrs by JC-1 staining-based fluorescence microscopy relative to control; assay type: functional, cell-based
# [4] = system: NCI-H460; assay: Induction of apoptosis in human NCI-H460 cells assessed as karyopyknosis and chromatin condensation at 8 uM after 12 to 48 hrs by Hoechst 33258 staining-based fluorescence microscopy relative to control; assay type: functional, cell-based
# [5] = system: NCI-H460; assay: Induction of apoptosis in human NCI-H460 cells assessed as early apoptotic cells at 8 uM after 12 hrs by Annexin V/propidium iodide staining-based flow cytometry (reference value: 6.8%); assay type: functional
# [6] = system: NCI-H460; assay: Induction of apoptosis in human NCI-H460 cells assessed as early apoptotic cells at 8 uM after 48 hrs by Annexin V/propidium iodide staining-based flow cytometry (reference value: 6.8%); assay type: functional
# [7] = system: NCI-H460; assay: Induction of apoptosis in human NCI-H460 cells assessed as early apoptotic cells at 10 uM after 24 hrs by Annexin V/propidium iodide staining-based flow cytometry (reference value: 6.8%); assay type: functional
# [8] = system: NCI-H460; assay: Induction of apoptosis in human NCI-H460 cells assessed as early apoptotic cells at 20 uM after 24 hrs by Annexin V/propidium iodide staining-based flow cytometry (reference value: 6.8%); assay type: functional
# [9] = system: NCI-H460; assay: Induction of apoptosis in human NCI-H460 cells assessed as late apoptotic cells at 20 uM after 24 hrs by Annexin V/propidium iodide staining-based flow cytometry (reference value: 14.1%); assay type: functional
# [10] = system: NCI-H460; assay: Induction of apoptosis in human NCI-H460 cells assessed as necrotic cells at 8 uM after 24 hrs by Annexin V/propidium iodide staining-based flow cytometry (reference value: 6.9%); assay type: functional
# [11] = system: NCI-H460; assay: Induction of apoptosis in human NCI-H460 cells assessed as necrotic cells at 8 uM after 48 hrs by Annexin V/propidium iodide staining-based flow cytometry (reference value: 6.9%); assay type: functional
# [12] = system: NCI-H460; assay: Induction of apoptosis in human NCI-H460 cells assessed as viable cells at 8 uM after 24 hrs by Annexin V/propidium iodide staining-based flow cytometry (reference value: 72.2%); assay type: functional; conditions: NCI-H460, 24 h, read-out: Activity
# [13] = system: NCI-H460; assay: Induction of apoptosis in human NCI-H460 cells assessed as viable cells at 8 uM after 48 hrs by Annexin V/propidium iodide staining-based flow cytometry (reference value: 72.2%); assay type: functional; conditions: NCI-H460, 48 h, read-out: Activity
# [14] = system: NCI-H460; assay: Induction of apoptosis in human NCI-H460 cells assessed as viable cells at 10 uM after 24 hrs by Annexin V/propidium iodide staining-based flow cytometry (reference value: 72.2%); assay type: functional; conditions: NCI-H460, 24 h, read-out: Activity
# [15] = system: NCI-H460; assay: Induction of apoptosis in human NCI-H460 cells assessed as early apoptotic cells at 8 uM by Annexin V/propidium iodide staining-based flow cytometry; assay type: functional, cell-based; conditions: TDE = time-dependent effect
# [16] = system: NCI-H460; assay: Induction of apoptosis in human NCI-H460 cells assessed as late apoptotic cells at 8 uM by Annexin V/propidium iodide staining-based flow cytometry; assay type: functional, cell-based; conditions: TDE = time-dependent effect
# [17] = system: NCI-H460; assay: Induction of apoptosis in human NCI-H460 cells assessed as necrotic cells at 8 uM by Annexin V/propidium iodide staining-based flow cytometry; assay type: functional, cell-based; conditions: TDE = time-dependent effect
# [18] = system: NCI-H460; assay: Induction of apoptosis in human NCI-H460 cells assessed as viable cells after 24 hrs by Annexin V/propidium iodide staining-based flow cytometry; assay type: functional, cell-based
# [19] = system: NCI-H460; assay: Induction of apoptosis in human NCI-H460 cells assessed as viable cells at 8 uM by Annexin V/propidium iodide staining-based flow cytometry; assay type: functional, cell-based; conditions: TDE = time-dependent effect
# [20] = system: NCI-H460; assay: Induction of apoptosis in human NCI-H460 cells assessed as early apoptotic cells at 5 to 20 uM after 24 hrs by Annexin V/propidium iodide staining-based flow cytometry relative to control; assay type: functional, cell-based
# [21] = system: NCI-H460; assay: Cell cycle arrest in human NCI-H460 cells assessed as accumulation at G1 phase at 8 uM after 24 hrs by Rnase A/propidium iodide staining-based flow cytometry (reference value: 46.69%); assay type: functional
# [22] = system: NCI-H460; assay: Cell cycle arrest in human NCI-H460 cells assessed as accumulation at G1 phase at 8 uM after 48 hrs by Rnase A/propidium iodide staining-based flow cytometry (reference value: 46.69%); assay type: functional
# [23] = system: NCI-H460; assay: Cell cycle arrest in human NCI-H460 cells assessed as accumulation at G1 phase at 5 uM after 48 hrs by Rnase A/propidium iodide staining-based flow cytometry (reference value: 46.69%); assay type: functional
# [24] = system: NCI-H460; assay: Cell cycle arrest in human NCI-H460 cells assessed as accumulation at G1 phase at 10 uM after 48 hrs by Rnase A/propidium iodide staining-based flow cytometry (reference value: 46.69%); assay type: functional
# [25] = system: NCI-H460; assay: Cell cycle arrest in human NCI-H460 cells assessed as accumulation at G1 phase at 20 uM after 48 hrs by Rnase A/propidium iodide staining-based flow cytometry (reference value: 46.69%); assay type: functional
# [26] = system: NCI-H460; assay: Cell cycle arrest in human NCI-H460 cells assessed as accumulation at S phase at 8 uM after 12 hrs by Rnase A/propidium iodide staining-based flow cytometry (reference value: 19.41%); assay type: functional
# [27] = system: NCI-H460; assay: Cell cycle arrest in human NCI-H460 cells assessed as accumulation at S phase at 20 uM after 48 hrs by Rnase A/propidium iodide staining-based flow cytometry (reference value: 19.41%); assay type: functional
# [28] = system: NCI-H460; assay: Cell cycle arrest in human NCI-H460 cells assessed as accumulation at G2 phase at 8 uM after 48 hrs by Rnase A/propidium iodide staining-based flow cytometry (reference value: 33.9%); assay type: functional
# [29] = system: NCI-H460; assay: Induction of apoptosis in human NCI-H460 cells assessed as caspase-4 activation after 24 hrs by qRT-PCR analysis; assay type: functional, cell-based
# [30] = system: NCI-H460; assay: Induction of apoptosis in human NCI-H460 cells assessed as caspase-9 activation after 24 hrs by qRT-PCR analysis; assay type: functional, cell-based
# [31] = system: NCI-H460; assay: Induction of apoptosis in human NCI-H460 cells assessed as downregulation of Bcl-2 mRNA expression after 24 hrs by qRT-PCR analysis; assay type: functional, cell-based
# [32] = system: NCI-H460; assay: Induction of apoptosis in human NCI-H460 cells assessed as upregulation of AIF mRNA expression after 24 hrs by qRT-PCR analysis; assay type: functional, cell-based
# [33] = system: NCI-H460; assay: Induction of apoptosis in human NCI-H460 cells assessed as upregulation of cytochrome C mRNA expression after 24 hrs by qRT-PCR analysis; assay type: functional, cell-based
# [34] = system: NCI-H460; assay: Induction of apoptosis in human NCI-H460 cells assessed as increase in intracellular ROS generation at 5 to 20 uM after 24 hrs by DCFH-DA staining-based fluorescence microscopy; assay type: functional, cell-based
# [35] = system: HeLa; assay: cells; conditions: Homo sapiens, 48 h
# Description: Cytotoxicity against human HeLa cells after 48 hrs by MTT assay
# [36] = system: A549; assay: cells; conditions: Homo sapiens, A549, 48 h
# Description: Cytotoxicity against human A549 cells after 48 hrs by MTT assay
# [37] = system: HepG2; assay: cells; conditions: Homo sapiens, HepG2, 48 h
# Description: Cytotoxicity against human HepG2 cells after 48 hrs by MTT assay
SMILES,IC50 [1] [µM],IC50 [2] [µM],Activity [3],Activity [4],Activity [5] [%],Activity [6] [%],Activity [7] [%],Activity [8] [%],Activity [9] [%],Activity [10] [%],Activity [11] [%],viability at 8 µM [12] [%],viability at 8 µM [13] [%],viability at 10 µM [14] [%],Activity [15],Activity [16],Activity [17],Activity [18],Activity [19],Activity [20],also measured
CCOP(=O)(OCC)C(NC(=O)C(C)Oc1ccc2c(c1O)C(=O)c1ccccc1C2=O)c1ccccc1F (stereo unspecified),18.8,3.8,Dose-dependent effect,Active,30.3,56.4,56.3,55.1,9.8,1.9,3.2,46.3,31.1,36.2,tde,tde,tde,Dose-dependent effect,tde,Active,Activity [21]: 60.05%; Activity [22]: 65.52%; Activity [23]: 64.52%; Activity [24]: 65.81%; Activity [25]: 68.89%; Activity [26]: 14.65%; Activity [27]: 11.25%; Activity [28]: 23.61%; Activity [29]: Dose-dependent effect; Activity [30]: Dose-dependent effect; Activity [31]: Dose-dependent effect; Activity [32]: Dose-dependent effect; Activity [33]: Dose-dependent effect; Activity [34]: Active; IC50 [35]: 21.1 µM; IC50 [36]: 6.76 µM; IC50 [37]: 21 µM
CCOP(=O)(OCC)C(NC(=O)C(C)Oc1ccc2c(c1O)C(=O)c1ccccc1C2=O)c1ccccc1OC (stereo unspecified),10.1,9.8,Dose-dependent effect,Active,21.9,50.2,32.4,34.7,30.7,2.5,3.2,47.5,28.2,41.4,tde,tde,tde,Dose-dependent effect,tde,Active,Activity [21]: 64.92%; Activity [22]: 68.16%; Activity [23]: 56.85%; Activity [24]: 60.79%; Activity [25]: 65.1%; Activity [26]: 15.62%; Activity [27]: 11.81%; Activity [28]: 22.97%; Activity [29]: Dose-dependent effect; Activity [30]: Dose-dependent effect; Activity [31]: Dose-dependent effect; Activity [32]: Dose-dependent effect; Activity [33]: Dose-dependent effect; Activity [34]: Active; IC50 [35]: 28.2 µM; IC50 [36]: 12.3 µM; IC50 [37]: 88.2 µM
CCOP(=O)(OCC)C(NC(=O)C(C)Oc1ccc2c(c1O)C(=O)c1ccccc1C2=O)c1cccc2ccccc12 (stereo unspecified),3.77,6.83,Dose-dependent effect,Active,19.9,54.9,35.7,38.8,16.4,2.4,3.7,47.5,26.6,44.6,tde,tde,tde,Dose-dependent effect,tde,Active,Activity [21]: 66.33%; Activity [22]: 68.09%; Activity [23]: 57.2%; Activity [24]: 59.86%; Activity [25]: 61.6%; Activity [26]: 0.11%; Activity [27]: 17.06%; Activity [28]: 31.5%; Activity [29]: Dose-dependent effect; Activity [30]: Dose-dependent effect; Activity [31]: Dose-dependent effect; Activity [32]: Dose-dependent effect; Activity [33]: Dose-dependent effect; Activity [34]: Active; IC50 [35]: 15 µM; IC50 [36]: 15.9 µM; IC50 [37]: 40.5 µM
